Test results published in paper PMC2644305 (Nature chemical biology, 2009).

Target: FACL19 (Mycobacterium tuberculosis, UniProt P9WQ51)

| SMILES | KM |
| --- | --- |
| CC(C)(COP(=O)(O)OP(=O)(O)OC[C@H]1O[C@@H](n2cnc3c(N)ncnc32)[C@H](O)[C@@H]1OP(=O)(O)O)[C@@H](O)C(=O)NCCC(=O)NCCS [compound 1, CoASH] | Kinetic analysis of CoA formation by wild type FACL19 and FACL19i proteins |
| Nc1ncnc2c1ncn2[C@@H]1O[C@H](COP(=O)(O)OP(=O)(O)OP(=O)(O)O)[C@@H](O)[C@H]1O [compound 3, ATP] | no significant change in KM was observed for ATP |
